SMILES strings stand for the structures. Active and inactive are the calls of the source. How the calls were made is not given here.

Sequence of Serine/threonine-protein kinase mTOR (Homo sapiens) (P42345 2015-2114): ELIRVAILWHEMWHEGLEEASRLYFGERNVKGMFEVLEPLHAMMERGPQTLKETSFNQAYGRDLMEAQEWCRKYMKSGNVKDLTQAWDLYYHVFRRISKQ

The assay has as its target Serine/threonine-protein kinase mTOR (Homo sapiens) (UniProt P42345). The experiment in a line: binders of mTOR FRB domain, biophysical, NMR (AID 1648). Particulars: NMR binding to FRB domain, chemical shift.
The term Kd denotes a measure of binding affinity in units of concentration. For the compound `S=C(Nc1ccccc1)Nc1nncs1`, the Kd was > 4 mM (inactive).
Under `O=C(COc1ccccc1)N1CCc2ccccc2C1` stands > 4 mM (inactive); under `NC1=NC(=O)/C(=C/c2cccs2)S1`, > 4 mM (inactive).
Then `CNS(=O)(=O)c1cc(OC)ccc1OC`, with > 4 mM (inactive); and `O=C1CSC(=Nc2ccc(O)cc2)N1`, with > 4 mM (inactive); and `Cc1occc1C(=O)Nc1nnc(-c2ccncc2)s1`, with > 4 mM (inactive).
Under `CC(=O)Nc1ccc(NC(=O)C2CC2)cc1` stands > 4 mM (inactive); under `c1ccc(SCc2nc(-c3ccccn3)no2)cc1`, > 4 mM (inactive).
Turning to `OCc1cccc2c1OCO2`, the Kd was > 4 mM (inactive).
Under `O=C1NCCCC1C(=O)N/N=C/c1ccccc1` (stereo not given) stands > 4 mM (inactive); under `CNC(=S)Nc1cccc(C(=O)O)c1`, > 4 mM (inactive); under `O=C1C[C@@H](c2ccc(O)cc2)Oc2cc(O)cc(O)c21`, > 4 mM (inactive).
Then `COc1cccc(N2CCNCC2)c1`, with > 4 mM (inactive).
`COc1ccc(/C=N/n2cn[nH]c2=S)cc1`: the Kd is > 4 mM (inactive).
Then `CCNC(CC(=O)Nc1ccc(O)cc1)C(=O)O` (stereo not given), with > 4 mM (inactive); and `OCc1ccc2nonc2c1`, with > 4 mM (inactive); and `CN(C)c1ccc2c(=O)[nH][nH]c(=O)c2c1`, with > 4 mM (inactive).
Under `O=C(O)C1=CCCNC1` stands > 4 mM (inactive).
Then `O=S1(=O)NC(=NCc2ccco2)c2ccccc21`, with > 4 mM (inactive); and `C=CCSc1[nH]c(=O)cc(C)c1C(N)=O`, with > 4 mM (inactive); and `C=C[C@@](C)(O)CCC1C(=C)C[C@H](OC(C)=O)C2C(C)(C)CCCC12C` (stereo not given in full), with > 4 mM (inactive).
On to `O=C(Oc1ccc(-c2nnco2)cc1)N1CCCCC1`, for which the Kd was > 4 mM (inactive).
Then `CSc1nc(C)cc(Oc2ccc(=O)n(C)n2)n1`, with > 4 mM (inactive); and `Cc1cc(C)n2nc(N)nc2n1`, with > 4 mM (inactive); and `NCc1csc(-c2ccccc2)n1`, with > 4 mM (inactive).
Consider `COc1ccc(Cc2nccc3cc(OC)c(OC)cc23)cc1OC`, for which the Kd was > 4 mM (inactive).
Take `NCc1ccccc1N1CCOCC1`: the Kd is > 4 mM (inactive).
Under `CC(=O)Nc1ccccc1OCC(N)=O` stands > 4 mM (inactive); under `NS(=O)(=O)c1ccc(NC(=O)c2cccs2)cc1`, > 4 mM (inactive).
`Cn1c(SCC(=O)NCCO)nc2ccccc2c1=O`: the Kd is > 4 mM (inactive).
Then `O=C(O)c1cc(O)c2c(c1)C(=O)c1cc(O)cc(O)c1C2=O`, with > 4 mM (inactive); and `O=C(Nc1ccc2ccccc2c1)c1cnccn1`, with > 4 mM (inactive); and `COc1cc2nc(-c3cccs3)oc(=O)c2cc1OC`, with > 4 mM (inactive).
In the case of `Cc1nnc2n(c1=O)N=C(c1ccccc1)CS2`, the Kd was > 4 mM (inactive).
For the compound `O=C(O[C@@H]1Cc2c(O)cc(O)cc2O[C@@H]1c1cc(O)c(O)c(O)c1)c1cc(O)c(O)c(O)c1`, the Kd is > 4 mM (inactive).
In the case of `CNC(=S)N1CCN(C(=O)c2ccco2)CC1`, the Kd was > 4 mM (inactive).
Under `CC(=O)O[C@H]1CC[C@@]2(C)C(C[C@@H](OC(C)=O)[C@@]3(C)C4=CC(=O)O[C@@H](c5ccoc5)[C@]4(C)CCC23)C1(C)C` (stereo not given in full) stands > 4 mM (inactive); under `Cc1csc2nc3ccccc3c(=O)n12`, > 4 mM (inactive); under `Cc1ccc(CN2CCN(C(=O)C3CCC3)CC2)cc1`, > 4 mM (inactive).
Take `Cc1cc(C(=O)N2CCN(c3ncccn3)CC2)cs1`: the Kd was > 4 mM (inactive).
Then `CC(=O)O[C@@H]1CC2C(C)(C)C(=O)C3OC3[C@]2(C)C2CC[C@@]3(C)[C@H](c4ccoc4)OC(=O)C4OC43[C@@]21C` (stereo not given in full), with > 4 mM (inactive); and `CCCCCC1C(=O)CCC1CC(=O)OC` (stereo not given), with > 4 mM (inactive).
Then `Nc1nnc(SCc2ccc(F)cc2)s1`, with > 4 mM (inactive).
Then `O=C(NCC1CCNCC1)c1ccncc1`, with > 4 mM (inactive); and `COCC(=O)/C=C1\Sc2ccccc2N1C`, with > 4 mM (inactive); and `O=c1cc(-c2ccc(O)cc2)[nH]c(=S)[nH]1`, with > 4 mM (inactive).
Consider `O=C(Nc1ccon1)c1ccc2c(c1)OCO2`, for which the Kd is > 4 mM (inactive).
Then `Nc1ccc(OC(F)(F)F)cc1`, with > 4 mM (inactive); and `OC12C=CC(CC1)CC2`, with > 4 mM (inactive); and `COc1ccc2c(c1)OC[C@@H](Cc1ccc(OC)c(OC)c1)[C@H]2O`, with > 4 mM (inactive).
Then `CCC1C(=O)OCC1Cc1cncn1C` (stereo not given), with > 4 mM (inactive); and `CCCOn1nnnc1-c1ccccc1`, with > 4 mM (inactive).
Then `O=C(CC1SC(=O)NC1=O)Nc1nccs1` (stereo not given), with > 4 mM (inactive); and `COc1cc(O)c2c(=O)c(O)c(-c3ccc(O)c(O)c3)oc2c1`, with > 4 mM (inactive).
As to `CC1(C)Cc2nc3n[nH]c(N)c3cc2CO1`, the Kd is > 4 mM (inactive).
For the compound `CC1(C)N=C2C(=N)C=CC=C2N1O`, the Kd is > 4 mM (inactive).
Then `O=C1NC(=S)NC(=O)C1=Cc1ccncc1`, with > 4 mM (inactive); and `O=C(O)Cn1nnn(-c2ccccc2)c1=S`, with > 4 mM (inactive).
Under `Nc1ccccc1-n1cccn1` stands > 4 mM (inactive); under `CN(C(=O)c1cc2cccnc2n(C)c1=O)c1ccccc1`, > 4 mM (inactive).
Under `CN1CC(=O)N=C1N` stands > 4 mM (inactive); under `COc1ccc(Cl)cc1NC(=O)C(N)=O`, > 4 mM (inactive); under `OCc1ccccc1O[C@@H]1O[C@H](CO)[C@@H](O)[C@H](O)[C@H]1O`, > 4 mM (inactive).
Take `COC(=O)[C@@H]1OC(=O)C2OC23[C@@]1(C)CCC1[C@]2(C)C(C[C@H](O)[C@]13C)C(C)(C)[C@H](OC(C)=O)C[C@@H]2OC(C)=O` (stereo not given in full): the Kd is > 4 mM (inactive).
Then `CC(C)(C)CC(=O)NNC(=O)c1cnccn1`, with > 4 mM (inactive); and `O=C(Nn1cnnc1)c1ccccc1Cl`, with > 4 mM (inactive).
Under `CC(=O)NS(=O)(=O)c1ccc(C)cc1` stands > 4 mM (inactive); under `CN(C)c1oc(-c2ccccc2Cl)nc1C#N`, > 4 mM (inactive); under `CC(=O)Nc1nnc(-c2ccco2)o1`, > 4 mM (inactive).
Then `O=C(c1ccc(Cl)s1)N1CCOCC1`, with > 4 mM (inactive); and `O=C(NCN1CCOCC1)c1cnccn1`, with > 4 mM (inactive).
As to `O=C1N=c2ccccc2=C1c1sc(=S)[nH]c1O`, the Kd was > 4 mM (inactive).
Then `CC(C)c1c(O)c(-c2cc3c(c(C(C)C)c2O)CCC2C(C)(C)CCC[C@]32C)cc2c1CCC1C(C)(C)CCC[C@]21C` (stereo not given in full), with > 4 mM (inactive); and `CC(=O)Nc1cccc(N2C(=O)CCC2=O)c1`, with > 4 mM (inactive); and `O=C1NC(=O)C(C(=S)Nc2ccccc2)C(=O)N1`, with > 4 mM (inactive).
Then `NS(=O)(=O)c1ccc(NC(=S)NC2CC2)cc1`, with > 4 mM (inactive).
Under `COC(=O)C1CCN(c2ccc(Cl)nn2)CC1` stands > 4 mM (inactive); under `Cc1cn2c(-c3cccnc3)nnc2s1`, > 4 mM (inactive); under `Cc1cc(=O)oc2c1c(C)nn2CN1CCN(C)CC1`, > 4 mM (inactive).
As to `O=C(c1ccncc1)N1CCN(C(=O)c2ccco2)CC1`, the Kd is > 4 mM (inactive).
Under `COc1c2ccccc2nc2occc12` stands > 4 mM (inactive); under `NS(=O)(=O)c1ccc(N2CCCC2=O)cc1`, > 4 mM (inactive).
Then `Cc1ccc(C(C)C)cc2c(C)ccc1-2`, with > 4 mM (inactive).
Then `COc1ccc2ccc(=O)oc2c1`, with > 4 mM (inactive).
Take `Cc1cc2c(nn1)CCc1nonc1-2`: the Kd was > 4 mM (inactive).
Under `O=C(NC1CSCC1O)c1ccccc1` (stereo not given) stands > 4 mM (inactive); under `COc1cc([C@H]2Oc3cc([C@H]4Oc5cc(O)cc(O)c5C(=O)[C@@H]4O)ccc3O[C@@H]2CO)ccc1O`, > 4 mM (inactive).
As to `CC(=O)Nc1nc(-c2cccs2)cs1`, the Kd was > 4 mM (inactive).
On to `CCC1=Nc2ccccc2-c2nnc(SC)nc2O1`, for which the Kd was > 4 mM (inactive).
In the case of `CC(C)=NNC(=O)C(=O)Nc1ccc(F)cc1`, the Kd is > 4 mM (inactive).
As to `O=C(NCc1ccco1)c1ccc(Br)s1`, the Kd was > 4 mM (inactive).
As for `Cc1nc(-c2ccccc2)ncc1C(=O)O`, the Kd was > 4 mM (inactive).
Then `Nc1cccc2c(=O)[nH][nH]c(=O)c12`, with > 4 mM (inactive); and `Nc1nc(CSc2ncn(-c3ccccc3)n2)cs1`, with > 4 mM (inactive).
Then `C(=N\n1cnnc1)/c1cccs1`, with > 4 mM (inactive); and `O=C1NC(=S)N/C1=C\c1cccc([N+](=O)[O-])c1`, with > 4 mM (inactive).
In the case of `CC1=CC(=O)C2C(C)(C)CCC[C@]2(C)[C@@]1(O)CCc1ccoc1` (stereo not given in full), the Kd is > 4 mM (inactive).
Then `O=C1CC(C(=O)O)c2ccccc21` (stereo not given), with > 4 mM (inactive).
Then `COc1ccc2c3c([nH]c2c1)C(C)=NCC3`, with > 4 mM (inactive).
Then `CC(C)=NNC(=O)c1ccccc1`, with > 4 mM (inactive); and `Cc1cc(=O)n2[nH]cnc2n1`, with > 4 mM (inactive).
Regarding `COc1cccc(NC(=O)c2nc3ncccn3n2)c1`, the Kd is > 4 mM (inactive).
Under `O=C(O)c1[nH]nc2c1COc1ccccc1-2` stands > 4 mM (inactive).
Under `Cc1ccn(S(=O)(=O)c2ccc(F)cc2)n1` stands > 4 mM (inactive).
Under `Cc1cc(C(=O)NN2CCOCC2)c(C)o1` stands > 4 mM (inactive).
